Assay results from patent publication US8323911B2, “High throughput assay for discovering new inhibitors of the GIRK1/4 channel” (University of South Carolina, priority 2010, dated 2012).
Ends that are not written are not given here.

How the values were obtained:
[1] = target: T1, GIRK1/4 channel (Mus musculus, UniProt P48545+P63250); assay: GIRK1/4 channel FLIPR assay (DiBAC4(3) fluorescence, carbachol-stimulated HL-1 cells); format: cell-based; conditions: for IC50: 5 min pretreatment, read-out: IC50 for drug block of the carbachol signal; for block of the carbachol-sensitive fluorescence signal: at the concentrations tested; for inhibition of the carbachol signal during pretreatment: 1 μM
T1 construct: consistent with the expression of GIRK1/4 channels in the HL-1 cells; endogenous in cells; host or cells: HL-1 immortalized cardiac atrial cells
T1 sequence (P63250 1-501): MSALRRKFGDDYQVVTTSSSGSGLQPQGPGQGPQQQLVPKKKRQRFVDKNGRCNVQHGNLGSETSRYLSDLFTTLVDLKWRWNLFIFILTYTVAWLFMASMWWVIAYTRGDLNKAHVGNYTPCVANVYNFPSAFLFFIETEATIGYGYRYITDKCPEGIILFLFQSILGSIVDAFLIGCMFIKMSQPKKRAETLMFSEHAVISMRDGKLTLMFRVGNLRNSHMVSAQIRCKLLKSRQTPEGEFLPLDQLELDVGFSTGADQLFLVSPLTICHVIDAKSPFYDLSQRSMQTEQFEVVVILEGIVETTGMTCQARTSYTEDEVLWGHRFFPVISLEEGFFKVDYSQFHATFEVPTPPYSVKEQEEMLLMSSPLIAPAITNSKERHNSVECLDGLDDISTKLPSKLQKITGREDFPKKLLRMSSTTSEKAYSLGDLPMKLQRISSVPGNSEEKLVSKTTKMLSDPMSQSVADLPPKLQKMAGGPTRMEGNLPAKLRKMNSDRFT
T1 sequence (P48545 1-419): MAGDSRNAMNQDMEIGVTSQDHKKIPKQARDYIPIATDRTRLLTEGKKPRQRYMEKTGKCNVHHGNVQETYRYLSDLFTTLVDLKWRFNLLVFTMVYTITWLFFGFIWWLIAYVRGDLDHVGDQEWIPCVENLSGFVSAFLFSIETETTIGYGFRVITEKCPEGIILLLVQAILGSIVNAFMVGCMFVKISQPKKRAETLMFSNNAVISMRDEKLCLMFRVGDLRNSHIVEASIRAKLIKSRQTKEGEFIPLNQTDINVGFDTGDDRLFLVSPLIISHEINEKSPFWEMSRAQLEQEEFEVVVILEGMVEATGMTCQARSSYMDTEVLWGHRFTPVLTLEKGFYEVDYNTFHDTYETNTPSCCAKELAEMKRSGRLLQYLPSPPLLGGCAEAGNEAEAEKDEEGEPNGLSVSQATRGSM
Method: HL-1 cells were incubated for 1 h in Tyrode's solution containing 5 μM DiBAC4(3) (AnaSpec, Fremont, Calif.) and fluorescent signals recorded using a Synergy2 microplate reader (BioTek, Winosski, Vt.) at 28° C. Test compounds were dissolved in DMSO at a stock concentration of 10 mM, diluted to various concentrations, and applied to the cells for 5 min prior to the fluorescent measurements. DiBAC4(3) was present in all experimental solutions. DMSO, up to 1% in Tyrode's solution, had no adverse effects on the cell response. Carbachol or control solution (20 μL) was added to each well (total volume=220 μL) at time zero using the Synergy2 injector system. Data points were collected at 10-s intervals over a 300-s sampling period at excitation and emission wavelengths of 480 and 520 nm, respectively. Positive (carbachol or carbachol+1 mM BaCl2) and negative (water or DMSO) control experiments were performed to calculate Z′ factors. The Z′ factor is defined as Z′=1=−(3σP+3σN)/|μP−μN|, where μP and μN are the means of the positive control and negative control signals, and σp and σN are the standard deviations of the positive control and negative control signals, respectively. Plates used for Z′ factor determination contained 2 rows each of positive and negative controls. Dose-response curves for selected compounds were obtained and drug potencies determined by fitting the data with the following curve: Max/(1+([drug]/IC50)^k), where the IC50 is the concentration of the compound producing a 50% decrease in the maximal carbachol response (Max), and k is the slope factor. Interference of the test compounds with the DiBAC4(3) fluorescence was determined in the absence of cells by adding various concentrations of the compounds to Tyrode's solution containing the dye.

[2] = target: T2, IK,Ach (GIRK1/4 channel) (Mus musculus, UniProt P48545+P63250); assay: Patch-clamp recording of whole-cell IK,Ach currents in HL-1 cells; format: cell-based
T2 construct: consistent with the expression of GIRK1/4 channels in the HL-1 cells; endogenous in cells; host or cells: HL-1 immortalized cardiac atrial cells
T2 sequence (P63250 1-501): T1 sequence (P63250 1-501)
T2 sequence (P48545 1-419): T1 sequence (P48545 1-419)
Excerpt: A patch-clamp method was used to record the whole-cell IK,Ach using L/M EPC-7 (Adams & List Associates, Great Neck, N.Y.) and Axopatch 200 (Axon Instruments, Sunnyvale, Calif.) amplifiers. The procedures for measuring cardiac K^+ channels have been described in Walsh K B, Zhang J: Neonatal rat cardiac fibroblasts express three types of voltage-gated K^+ channels: regulation of a transient outward current by protein kinase C, Am J Physiol Heart Circ Physiol 2008; 294:H1010-H1017, incorporated by reference herein. Pipettes were made from borosilicate glass capillaries (World Precision Instruments, Sarasota, Fla.) and had resistances of 1 to 2 Mohms when filled with internal solution. All experiments were conducted on isolated, noncoupled HL-1 cells at room temperature (22-24° C.). For the measurement of IK,Ach, cells were placed in a normal Tyrode's solution consisting of 132 mM NaCl, 5 mM KCl, 1 mM CaCl2, 1 mM MgCl2, 5 mM dextrose, and 5 mM HEPES (pH 7.4; with NaOH) (280 mOsm). INa was blocked with tetrodotoxin (10 μM) and the Na^+ channels inactivated by maintaining the myocytes at a holding potential of −40 mV. L-type Ca^2+ channels were blocked with 500 nM nisoldipine. The internal solution was made from 50 mM KCl, 60 mM K^+-glutamate, 2 mM MgCl2, 1 mM CaCl2, 11 mM EGTA, 3 mM adenosine triphosphate (ATP), and 10 mM HEPES (pH 7.3; with KOH) (280 mOsm).
Membrane currents were recorded with 12-bit analog/digital converters (Axon Instruments). Data were sampled at 5 KHz and filtered at 1 KHz with a low-pass Bessel filter (Frequency Devices, Ottawa, Ill.). Series resistance was compensated to give the fastest possible capacity transient without producing oscillations. With this procedure, more than 70% of the series resistance could be compensated. Following the measurement of the HL-1 cell background current, IK,Ach was activated by the addition 10 μM carbachol using a rapid perfusion system. IK,Ach was defined as the BaCl2-sensitive current (see FIGS. 1A-1C, illustrating expression of GIRK1/4 channels in HL-1 cells). IK,Ach blockers were added and inhibition determined immediately after carbachol-induced activation. This limited errors in quantifying drug block due to GIRK1/4 channel desensitization and rundown. Averaged current values presented are means±SE.

[3] = tested on: IK,Ach; conditions: patch clamp analysis; read-out: IC50 measured in primary cultures of guinea pig atrial myocytes; cited from earlier work
[4] = tested on: GIRK channels; conditions: HEK-293 cells; cited from earlier work

## C[N+](C)(C)CCOC(N)=O [carbachol]
[1]; 10 μM carbachol, mean±SD, 4 plates
  peak carbachol-induced fluorescent signal (F/FO): 0.956±0.008
[1]; HL-1 cells, DiBAC4(3), read-out: EC50 for the carbachol-sensitive fluorescent signal (activation of GIRK1/4 channel)
  EC50: 0.11 µM
[1]; [K]o increased to 20 mM
  carbachol-mediated decrease in the fluorescent signal: completely eliminated
[1]; extracellular K+ reduced from 5 mM to 1 mM, 3 plates
  fold increase in the carbachol-sensitive signal: 2.0±0.1 fold

## N=C(N)NC(=O)c1nc(Cl)c(N)nc1N [amiloride]
[1]; concentrations up to 100 μM
  block of the carbachol-sensitive signal: only a partial block

## CC(C)(C)NCC(O)COc1ccccc1C(=O)CCc1ccccc1 (centres unmarked) [TBPP, 1-{2-[3-(tert-butylamino)-2-hydroxypropoxy]phenyl}-3-phenyl-1-propanone]
[1]; HL-1 cells, DiBAC4(3)
  IC50: 2 µM

## [Ba+2].[Cl-].[Cl-] [BaCl2]
[2]; 0.5 mM BaCl2
  block of carbachol-activated inward rectifying current: completely blocked
[1]; 1 mM
  block of the carbachol signal: blocked

## COc1ccc(Cl)cc1C(=O)NCCc1ccc(S(=O)(=O)NC(=O)NC2CCCCC2)cc1 [glybenclamide]
[1]
  block of the carbachol-sensitive fluorescence signal: no block

## N/C(=N\C(=O)c1nc(Cl)c(N)nc1N)NCc1ccc(Cl)c(Cl)c1 [DCB, dichlorobenzamil]
[1]; HL-1 cells, DiBAC4(3)
  IC50: 20 µM

## CCCNCC(O)COc1ccccc1C(=O)CCc1ccccc1 (centres unmarked) [propafenone]
[2]; patch clamp, measured at −100 mV, 10 μM carbachol, read-out: IC50 for block of IK,Ach current
  IC50: 2 µM
[1]; HL-1 cells, DiBAC4(3)
  IC50: 3 µM

## CN1[C@@H]2C[C@@H](OC(=O)[C@H](CO)c3ccccc3)C[C@H]1[C@@H]1O[C@@H]12 [scopolamine]
[1]
  inhibition of the carbachol signal during pretreatment: inhibited

## O=C(NCC1CCCCN1)c1cc(OCC(F)(F)F)ccc1OCC(F)(F)F (centres unmarked) [flecainide]
[3]
  IC50: 20 µM
[2]; 100 μM
  block of IK,Ach current: strongly blocked
[1]; HL-1 cells, DiBAC4(3)
  IC50: 56 µM

## tertiapin (ALCNCNRIIIPHMCWKKCGKK; ends and bridges not checked; cysteine pairing not given here; UniProt P56587 1-21, looked up) [Kir toxin]
[2]; 100 nM
  block of IK,Ach current: strongly blocked

## CCN(c1nc(N)c(C(=O)N=C(N)N)nc1Cl)C(C)C [EIPA, 5-(N-ethyl-N-isopropyl)-amiloride]
[1]; HL-1 cells, DiBAC4(3)
  IC50: 0.8 µM

## CC(C)NCC(O)c1ccc(NS(C)(=O)=O)cc1 (centres unmarked) [sotalol]
[1]
  block of the carbachol-sensitive fluorescence signal: no block

## CC(C)N(C)c1nc(N)c(C(=O)N=C(N)N)nc1Cl [MIBA, 5-(N-methyl-N-isopropyl)-amiloride]
[1]; HL-1 cells, DiBAC4(3)
  IC50: 2 µM

## CCN(CC)CCNC(=O)c1ccc(N)cc1 [procainamide]
[1]
  block of the carbachol-sensitive fluorescence signal: no block

## NC(=Nc1ccccc1)NC(=O)c1nc(Cl)c(N)nc1N [phenamil]
[1]; HL-1 cells, DiBAC4(3)
  IC50: 13 µM

## NC(=NCc1ccccc1)NC(=O)c1nc(Cl)c(N)nc1N [benzamil]
[1]; HL-1 cells, DiBAC4(3)
  IC50: 13 µM

## CCCCCCCN(CC)CCCC(O)c1ccc(NS(C)(=O)=O)cc1 (centres unmarked) [ibutilide]
[1]; HL-1 cells, DiBAC4(3)
  IC50: 16 µM

## COc1ccc(CC(=O)Nc2cc3c(cc2[N+](=O)[O-])OC(C)(C)[C@H](O)[C@H]3NC2CC2)cc1 [NIP-142]
[4]
  concentrations blocking GIRK channels: nanomolar concentrations

## CN1[C@@H]2CC[C@H]1C[C@@H](OC(=O)C(CO)c1ccccc1)C2 (some centres unmarked) [atropine]
[1]
  inhibition of the carbachol signal during pretreatment: inhibited

## [5-(2-methyl-5-fluorophenyl)furan-2-ylcarbonyl]guanidine [KR-32568]
[1]; drug concentrations up to 1 μM
  change in the carbachol-sensitive fluorescence: no significant change

## NC(N)=NC(=O)c1nc(Cl)c(N2CCCCCC2)nc1N [HMA, 5-(N,N-hexamethylene)-amiloride]
[1]; HL-1 cells, DiBAC4(3)
  IC50: 0.9 µM

## C=C[C@H]1C[N@@]2CC[C@H]1C[C@@H]2[C@@H](O)c1ccnc2ccc(OC)cc12 [quinidine]
[1]; HL-1 cells, DiBAC4(3)
  IC50: 24 µM
